Patent US6339103B1, “Fungicides” (Aventis CropScience UK Limited, priority 1998, dated 2002)

System: Plasmopara viticola
Assay: Vine downy mildew disease control, foliar spray on vines
Type: in vivo
Settings: aqueous solution sprayed onto vines to run off, then inoculated with 100,000 spores per ml, compared with untreated plants
Method: Aqueous solutions of the compound of Example 1 were sprayed at various concentrations onto vines to run off using a hand-sprayer. Plants were then inoculated by hand spraying with a spore suspension of 100,000 spores per ml of Plasmopara viticola. For the purposes of comparison the vines were sprayed also with the commercially available propamocarb hydrochloride.
Plants were assessed for degree of disease control compared with untreated plants.

SMILES | % Control (rate 400 ppm) [%] | % Control (rate 800 ppm) [%]
CCCOC(=O)NCCCN(C)C.Cl [propamocarb hydrochloride, propyl 3-(dimethylamino)propylcarbamate hydrochloride] | 4.2 | 14.6
CCCOC(=O)NCCCN(C)C.CCO[PH](=O)O [Compound of invention, dimethyl-[3-(propoxycarbonylamino)propyl]ammonium O-ethylphosphonate] | 27.6 | 81.5
